Source: US20240262819A1, “NOVEL COMPOUNDS HAVING INHIBITORY ACTIVITY AGAINST GLUCOSYLCERAMIDE SYNTHASE OR PHARMACEUTICALLY ACCEPTABLE SALT THEREOF, PROCESSES FOR PREPARING THE SAME, AND PHARMACEUTICAL COMPOSITIONS COMPRISING THE SAME” (YUHAN CORPORATION, priority 2021, published 2024)
Like-named read-outs stand apart in the source and are kept apart here.

Assays:
[1] = Evaluation of blood-brain barrier (BBB) permeability through oral administration; format: in vivo, mice; settings: mouse, in vivo, mice, oral, dose 30 mg/kg, 4 hr; for Kp at 4 h: read-out: Mean brain-plasma drug ratio at 4 hr
Protocol: The blood-brain barrier (BBB) permeability was evaluated in mice, with respect to the compounds according to the present invention and the control (ibiglustat). Each compound of the present invention and the control were suspended in 0.5% methyl cellulose containing 0.2% Tween 80 and then orally administered to mice at a dose of 10 or 30 mg/10 ml/kg. After the whole blood was collected from the heart of each mouse at the time of 4 hours after the administration, it was placed in a lithium heparin tube and immediately centrifuged to obtain the plasma. After the exsanguination was carried out through abdominal vena cava incision, the forebrain was taken by dissection of the head. Both of the forebrain and the plasma were stored in a −80° C. freezer until the analysis of drug concentrations therein. For the analysis of drug concentrations therein, the forebrain was immersed in distilled water and then homogenized with a homogenizer to obtain a homogenate. Each plasma and homogenate was treated with acetonitrile to precipitate proteins, vortexed for 15 seconds, and then centrifuged (12700 rpm, 10 min, 4° C.). The obtained supernatant was diluted with an 80% aqueous solution of acetonitrile containing 0.1% formic acid and then analyzed with an LC-MS/MS instrument. LC-MS/MS analysis was carried out with a reversed-phase column, using distilled water containing 0.1% formic acid and acetonitrile as mobile phases. Each eluted material was detected through a mass spectrometer to calculate the drug concentrations thereof. The brain-plasma drug ratio (B/P ratio) was calculated from the drug concentrations in each tissue to evaluate the blood-brain barrier (BBB) permeability.

[2] = system: GM1 production in Jurkat cells; test: cells; format: cell-based
[3] = biological target: glucosylceramide synthase (GCS) (Homo sapiens (Human), UniProt Q16739); test: Evaluation of inhibitory activities against GCS (A549 cell lysate, NBD C6-ceramide, HPLC); format: biochemical
glucosylceramide synthase (GCS), sequence (Q16739 whole entry): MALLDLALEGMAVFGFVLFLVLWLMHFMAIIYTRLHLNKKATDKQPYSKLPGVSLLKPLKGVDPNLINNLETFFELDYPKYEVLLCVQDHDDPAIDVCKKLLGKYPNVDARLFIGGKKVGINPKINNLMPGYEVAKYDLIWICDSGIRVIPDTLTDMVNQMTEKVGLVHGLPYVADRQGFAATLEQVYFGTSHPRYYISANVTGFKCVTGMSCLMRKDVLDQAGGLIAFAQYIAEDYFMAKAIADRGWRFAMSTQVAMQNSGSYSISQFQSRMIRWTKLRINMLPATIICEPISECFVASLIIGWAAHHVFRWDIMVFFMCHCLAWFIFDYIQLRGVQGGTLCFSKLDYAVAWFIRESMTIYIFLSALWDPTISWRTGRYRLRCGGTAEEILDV
Summary of the method: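 GCS activity in A549 cell lysate (50 mM HEPES, pH 7.3) with NBD C6-ceramide, reacted 90 min at 37 °C. Lipids were chloroform/methanol-extracted and separated by normal-phase HPLC with fluorescence detection (ex 470/em 530 nm). GlcCer fraction of peak area was normalized between DMSO and ibiglustat, and IC50 obtained by curve fitting.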

[4] = read-out: Mean drug concentrations in brain tissue at 4 hr
[5] = read-out: Mean drug concentrations in plasma at 4 hr
[6] = % GCS activity, A549 cell lysate, 37° C. for 90 minutes, read-out: IC50

Compound	Kp at 4 h [1]	concentration at 4 h [1, 4]	concentration at 4 h [1, 5]	IC50 ([2]; Homo sapiens, Jurkat, 72 h)	IC50 [3]	IC50 ([2]; read-out: IC50)	IC50 [3, 6]
COc1ccc(-c2ccc3c(c2)CC(C)(C)[C@H]3NC(=O)O[C@@H]2CN3CCC2CC3)cc1F [Example 18, (S)-quinuclidin-3-yl((R)-5-(3-fluoro-4-methoxyphenyl)-2,2-dimethyl-2,3-dihydro-1H-inden-1-yl)carbamate]	3.47	3950 ng/g	1130 ng/mL	50.7 nM	3.19 nM		
CC(C)Oc1ccc(-c2ccc3c(c2)CC(C)(C)[C@H]3NC(=O)O[C@@H]2CN3CCC2CC3)c(Cl)c1 [Example 32, (S)-quinuclidin-3-yl((R)-5-(2-chloro-4-isopropoxyphenyl)-2,2-dimethyl-2,3-dihydro-1H-inden-1-yl)carbamate]	4.23	5650 ng/g	1340 ng/mL	4.23 nM	0.192 nM		
Cc1cc(-c2ccc3c(c2)CC(C)(C)[C@H]3NC(=O)O[C@@H]2CN3CCC2CC3)ccc1OC(C)C [Example 34, (S)-quinuclidin-3-yl((R)-5-(4-isopropoxy-3-methylphenyl)-2,2-dimethyl-2,3-dihydro-1H-inden-1-yl)carbamate]	14	10700 ng/g	767 ng/mL	2.3 nM	1.31 nM		
COc1cc(-c2ccc3c(c2)CC(C)(C)[C@H]3NC(=O)O[C@@H]2CN3CCC2CC3)ccc1OC(C)C [Example 35, (S)-quinuclidin-3-yl((R)-5-(4-isopropoxy-3-methoxyphenyl)-2,2-dimethyl-2,3-dihydro-1H-inden-1-yl)carbamate]	1.85	2010 ng/g	1080 ng/mL	3.3 nM	2.22 nM		
Cc1cc(OC(C)C)ccc1-c1ccc2c(c1)CC(C)(C)[C@H]2NC(=O)O[C@@H]1CN2CCC1CC2 [Example 36, (S)-quinuclidin-3-yl((R)-5-(4-isopropoxy-2-methylphenyl)-2,2-dimethyl-2,3-dihydro-1H-inden-1-yl)carbamate]	3.65	6650 ng/g	1830 ng/mL	0.7 nM	0.13 nM		
Cc1cc(-c2cc3c(cc2F)[C@H](NC(=O)O[C@@H]2CN4CCC2CC4)C(C)(C)CC3)cc(C)c1OC(C)C [Example 182, (S)-quinuclidin-3-yl((R)-7-fluoro-6-(4-isopropoxy-3,5-dimethylphenyl)-2,2-dimethyl-1,2,3,4-tetrahydronaphthalen-1-yl)carbamate]				12.9 nM	3.1 nM		
CCCCOc1c(C)cc(-c2cc3c(cc2F)[C@H](NC(=O)O[C@@H]2CN4CCC2CC4)C(C)(C)CC3)cc1C [Example 183, (S)-quinuclidin-3-yl((R)-6-(4-butoxy-3,5-dimethylphenyl)-7-fluoro-2,2-dimethyl-1,2,3,4-tetrahydronaphthalen-1-yl)carbamate]				7.6 nM	1.6 nM		
COc1cccc(-c2cc3c(cc2F)[C@H](NC(=O)O[C@@H]2CN4CCC2CC4)C(C)(C)CC3)c1 [Example 184, (S)-quinuclidin-3-yl((R)-7-fluoro-6-(3-methoxyphenyl)-2,2-dimethyl-1,2,3,4-tetrahydronaphthalen-1-yl)carbamate]				2.29 nM	0.3 nM		
CCOc1cccc(-c2cc3c(cc2F)[C@H](NC(=O)O[C@@H]2CN4CCC2CC4)C(C)(C)CC3)c1 [Example 185, (S)-quinuclidin-3-yl((R)-6-(3-ethoxyphenyl)-7-fluoro-2,2-dimethyl-1,2,3,4-tetrahydronaphthalen-1-yl)carbamate]				3.6 nM	0.3 nM		
CCCCOc1cccc(-c2cc3c(cc2F)[C@H](NC(=O)O[C@@H]2CN4CCC2CC4)C(C)(C)CC3)c1 [Example 186, (S)-quinuclidin-3-yl((R)-6-(3-butoxyphenyl)-7-fluoro-2,2-dimethyl-1,2,3,4-tetrahydronaphthalen-1-yl)carbamate]				0.71 nM	0.46 nM		
CCc1cccc(-c2cc3c(cc2F)[C@H](NC(=O)O[C@@H]2CN4CCC2CC4)C(C)(C)CC3)c1 [Example 187, (S)-quinuclidin-3-yl((R)-6-(3-ethylphenyl)-7-fluoro-2,2-dimethyl-1,2,3,4-tetrahydronaphthalen-1-yl)carbamate]				1.3 nM	0.51 nM		
CCCc1cccc(-c2cc3c(cc2F)[C@H](NC(=O)O[C@@H]2CN4CCC2CC4)C(C)(C)CC3)c1 [Example 188, (S)-quinuclidin-3-yl((R)-7-fluoro-2,2-dimethyl-6-(3-propylphenyl)-1,2,3,4-tetrahydronaphthalen-1-yl)carbamate]				2.7 nM	0.84 nM		
CC(C)Cc1cccc(-c2cc3c(cc2F)[C@H](NC(=O)O[C@@H]2CN4CCC2CC4)C(C)(C)CC3)c1 [Example 189, (S)-quinuclidin-3-yl((R)-7-fluoro-6-(3-isobutylphenyl)-2,2-dimethyl-1,2,3,4-tetrahydronaphthalen-1-yl)carbamate]				6 nM	1.04 nM		
CC(C)c1cccc(-c2cc3c(cc2F)[C@H](NC(=O)O[C@@H]2CN4CCC2CC4)C(C)(C)CC3)c1 [Example 190, (S)-quinuclidin-3-yl((R)-7-fluoro-6-(3-isopropylphenyl)-2,2-dimethyl-1,2,3,4-tetrahydronaphthalen-1-yl)carbamate]				1.9 nM	0.72 nM		
CC(C)COc1cccc(-c2cc3c(cc2F)[C@H](NC(=O)O[C@@H]2CN4CCC2CC4)C(C)(C)CC3)c1 [Example 191, (S)-quinuclidin-3-yl((R)-7-fluoro-6-(3-isobutoxyphenyl)-2,2-dimethyl-1,2,3,4-tetrahydronaphthalen-1-yl) carbamate]						2.28 nM	0.62 nM
CCCOc1cccc(-c2cc3c(cc2F)[C@H](NC(=O)O[C@@H]2CN4CCC2CC4)C(C)(C)CC3)c1 [Example 192, (S)-quinuclidin-3-yl((R)-7-fluoro-2,2-dimethyl-6-(3-propoxyphenyl)-1,2,3,4-tetrahydronaphthalen-1-yl) carbamate]						2.9 nM	0.53 nM
CCOc1c(C)cc(-c2cc3c(cc2F)[C@H](NC(=O)O[C@@H]2CN4CCC2CC4)C(C)(C)CC3)cc1C [Example 195, (S)-quinuclidin-3-yl((R)-6-(4-ethoxy-3,5-dimethylphenyl)-7-fluoro-2,2-dimethyl-1,2,3,4-tetrahydronaphthalen-1-yl)carbamate]				8.3 nM	1.29 nM		
CC(C)Oc1cccc(-c2cc3c(cc2F)[C@H](NC(=O)O[C@@H]2CN4CCC2CC4)C(C)(C)CC3)c1 [Example 196, (S)-quinuclidin-3-yl((R)-7-fluoro-6-(3-isopropoxyphenyl)-2,2-dimethyl-1,2,3,4-tetrahydronaphthalen-1-yl)carbamate]				6 nM	0.43 nM		
(S)-quinuclidin-3-yl((R)-2,2-dimethyl-6-(3-propylphenyl)-1,2,3,4-tetrahydronaphthalen-1-yl) carbamate [Example 156]						1.9 nM	0.62 nM
(S)-quinuclidin-3-yl((R)-7-fluoro-6-(4-isopropylphenyl)-2,2-dimethyl-1,2,3,4-tetrahydronaphthalen-1-yl) carbamate [Example 172]						0.86 nM	0.33 nM
(S)-quinuclidin-3-yl((R)-7-fluoro-6-(4-methoxyphenyl)-2,2-dimethyl-1,2,3,4-tetrahydronaphthalen-1-yl) carbamate [Example 175]						3.8 nM	0.28 nM
